Numbers after ± are expanded uncertainties.
Assay: xn = mol fraction of the nth substance listed

CCCCC(O)CO (configuration not stated) [1,2-hexanediol] + O
surface tension liquid-gas [mN/m]
Details | 283.15 K | 288.15 K | 293.15 K | 298.15 K | 303.15 K | 308.15 K
x1 = 0.001 | 55.1 ± 1 | 54.5 ± 1 | 54.3 ± 1 | 53.8 ± 1 | 53.3 ± 1 | 52.7 ± 0.9
x1 = 0.0016 | 47.5 ± 0.9 | 47.3 ± 0.9 | 47 ± 0.9 | 46.6 ± 0.9 | 46.3 ± 0.9 | 45.6 ± 0.9
x1 = 0.002 | 45.1 ± 0.9 | 44.5 ± 0.9 | 43.9 ± 0.9 | 43.4 ± 0.9 | 42.8 ± 0.9 | 42.3 ± 0.9
x1 = 0.0034 | 41.6 ± 0.9 | 40.6 ± 0.9 | 40 ± 0.9 | 39.3 ± 0.9 | 38.5 ± 0.9 | 38.1 ± 0.9
x1 = 0.0052 | 37.3 ± 0.9 | 36.3 ± 0.8 | 35.5 ± 0.8 | 34.7 ± 0.8 | 33.8 ± 0.8 | 33 ± 0.8
x1 = 0.0077 | 32.2 ± 0.8 | 31.4 ± 0.8 | 30.8 ± 0.8 | 30 ± 0.8 | 29.5 ± 0.8 | 28.9 ± 0.8
x1 = 0.0108 | 28.7 ± 0.8 | 28.1 ± 0.8 | 27.7 ± 0.8 | 27.2 ± 0.8 | 26.8 ± 0.8 | 26.4 ± 0.8
x1 = 0.014 | 27.6 ± 0.8 | 26.9 ± 0.8 | 26.3 ± 0.8 | 25.7 ± 0.8 | 25.2 ± 0.8 | 24.8 ± 0.8
x1 = 0.0175 | 26.4 ± 0.8 | 25.9 ± 0.8 | 25.7 ± 0.8 | 25.3 ± 0.8 | 24.8 ± 0.8 | 24.4 ± 0.8
x1 = 0.0251 | 26.2 ± 0.8 | 25.9 ± 0.8 | 25.5 ± 0.8 | 25.2 ± 0.8 | 25 ± 0.8 | 24.7 ± 0.8
x1 = 0.036 | 25.7 ± 0.8 | 25.5 ± 0.8 | 25.2 ± 0.8 | 25 ± 0.8 | 24.7 ± 0.8 | 24.5 ± 0.8
x1 = 0.046 | 25.7 ± 0.8 | 25.4 ± 0.8 | 25.2 ± 0.8 | 24.9 ± 0.8 | 24.7 ± 0.8 | 24.4 ± 0.8
x1 = 0.0514 | 25.7 ± 0.8 | 25.4 ± 0.8 | 25.2 ± 0.8 | 24.9 ± 0.8 | 24.7 ± 0.8 | 24.4 ± 0.8
x1 = 0.0655 | 25.6 ± 0.8 | 25.4 ± 0.8 | 25.1 ± 0.8 | 24.9 ± 0.8 | 24.4 ± 0.8 | 24.1 ± 0.8
x1 = 0.0831 | 25.6 ± 0.8 | 25.3 ± 0.8 | 25.1 ± 0.8 | 24.8 ± 0.8 | 24.5 ± 0.8 | 24.1 ± 0.8
x1 = 0.0968 | 25.1 ± 0.8 | 24.9 ± 0.8 | 24.6 ± 0.8 | 24.4 ± 0.8 | 24.3 ± 0.8 | 24 ± 0.8
x1 = 0.1119 | 24.9 ± 0.8 | 24.7 ± 0.8 | 24.4 ± 0.8 | 24.1 ± 0.8 | 23.9 ± 0.8 | 23.6 ± 0.8
x1 = 1 | 24.7 ± 0.8 | 24.4 ± 0.8 | 24.1 ± 0.8 | 23.8 ± 0.8 | 23.6 ± 0.8 | 23.3 ± 0.8

CC(O)CCCCO (configuration not stated) [1,5-hexanediol] + O
surface tension liquid-gas [mN/m]
Details | 283.15 K | 288.15 K | 293.15 K | 298.15 K | 303.15 K | 308.15 K
x1 = 0.001 | 65.3 ± 1 | 65 ± 1 | 63.8 ± 1 | 62.8 ± 1 | 62.3 ± 1 | 61.2 ± 1
x1 = 0.0021 | 58.3 ± 1 | 57.6 ± 1 | 56.9 ± 1 | 56.1 ± 1 | 55.7 ± 1 | 55 ± 1
x1 = 0.0037 | 55.3 ± 1 | 54.7 ± 1 | 54.2 ± 1 | 53.6 ± 1 | 52.9 ± 0.9 | 52.4 ± 0.9
x1 = 0.0053 | 53 ± 0.9 | 52.5 ± 0.9 | 51.7 ± 0.9 | 51.2 ± 0.9 | 50.6 ± 0.9 | 50.3 ± 0.9
x1 = 0.0071 | 51 ± 0.9 | 50.4 ± 0.9 | 49.9 ± 0.9 | 49.3 ± 0.9 | 48.8 ± 0.9 | 48.5 ± 0.9
x1 = 0.0089 | 50 ± 0.9 | 49.2 ± 0.9 | 48.6 ± 0.9 | 47.9 ± 0.9 | 47.3 ± 0.9 | 47 ± 0.9
x1 = 0.0111 | 47.5 ± 0.9 | 46.7 ± 0.9 | 46.4 ± 0.9 | 46 ± 0.9 | 45.7 ± 0.9 | 45 ± 0.9
x1 = 0.0145 | 45.3 ± 0.9 | 44.7 ± 0.9 | 44.5 ± 0.9 | 43.8 ± 0.9 | 43.4 ± 0.9 | 42.9 ± 0.9
x1 = 0.0194 | 43 ± 0.9 | 42.2 ± 0.9 | 41.3 ± 0.9 | 40.3 ± 0.9 | 39.8 ± 0.9 | 38.6 ± 0.9
x1 = 0.0324 | 39.7 ± 0.9 | 39.1 ± 0.9 | 38.6 ± 0.9 | 38 ± 0.9 | 37.5 ± 0.9 | 37 ± 0.8
x1 = 0.0507 | 38 ± 0.9 | 37.3 ± 0.9 | 36.9 ± 0.8 | 36.6 ± 0.8 | 35.7 ± 0.8 | 35 ± 0.8
x1 = 0.0738 | 36.9 ± 0.8 | 36.5 ± 0.8 | 36.1 ± 0.8 | 35.8 ± 0.8 | 34.9 ± 0.8 | 34.4 ± 0.8
x1 = 1 | 34.6 ± 0.9 | 34.3 ± 0.8 | 34.1 ± 0.8 | 33.9 ± 0.8 | 33.7 ± 0.8 | 33.5 ± 0.8

OCCCCCCO [1,6-hexanediol] + O
surface tension liquid-gas [mN/m]
Details | 283.15 K | 288.15 K | 293.15 K | 298.15 K | 303.15 K | 308.15 K
x1 = 0.0013 | 63.8 ± 1 | 63.1 ± 1 | 62.3 ± 1 | 62 ± 1 | 61.1 ± 1 | 60.6 ± 1
x1 = 0.0017 | 62.5 ± 1 | 61.8 ± 1 | 61.2 ± 1 | 60.4 ± 1 | 59.7 ± 1 | 58.8 ± 1
x1 = 0.0021 | 61.5 ± 1 | 60.7 ± 1 | 60.3 ± 1 | 59.4 ± 1 | 58.5 ± 1 | 57.6 ± 1
x1 = 0.0029 | 60 ± 1 | 59.2 ± 1 | 58.6 ± 1 | 57.5 ± 1 | 56.8 ± 1 | 56 ± 1
x1 = 0.0057 | 56.9 ± 1 | 55.7 ± 1 | 55 ± 1 | 53.8 ± 1 | 53.3 ± 1 | 52.4 ± 0.9
x1 = 0.007 | 55.1 ± 1 | 54.3 ± 1 | 53.4 ± 1 | 52.1 ± 0.9 | 51.7 ± 0.9 | 50.9 ± 0.9
x1 = 0.0089 | 53.3 ± 1 | 52.4 ± 0.9 | 51.4 ± 0.9 | 50.2 ± 0.9 | 50 ± 0.9 | 49.4 ± 0.9
x1 = 0.014 | 50.6 ± 0.9 | 49.4 ± 0.9 | 49.1 ± 0.9 | 48.3 ± 0.9 | 48.3 ± 0.9 | 47.2 ± 0.9
x1 = 0.0159 | 49.4 ± 0.9 | 48.6 ± 0.9 | 48 ± 0.9 | 47.5 ± 0.9 | 47 ± 0.9 | 46.6 ± 0.9
x1 = 0.0237 | 48.5 ± 0.9 | 47.6 ± 0.9 | 47 ± 0.9 | 46.5 ± 0.9 | 46.1 ± 0.9 | 45.8 ± 0.9
x1 = 0.0373 | 46.1 ± 0.9 | 45.7 ± 0.9 | 45.4 ± 0.9 | 45 ± 0.9 | 44.5 ± 0.9 | 44.2 ± 0.9
x1 = 0.0463 | 44.4 ± 0.9 | 44.1 ± 0.9 | 43.9 ± 0.9 | 43.6 ± 0.9 | 43.3 ± 0.9 | 43 ± 0.9
x1 = 0.0545 | 43.7 ± 0.9 | 43.4 ± 0.9 | 43.2 ± 0.9 | 42.9 ± 0.9 | 42.5 ± 0.9 | 42.2 ± 0.9
x1 = 0.0742 | 43.5 ± 0.9 | 43.3 ± 0.9 | 43 ± 0.9 | 42.8 ± 0.9 | 42.4 ± 0.9 | 42.1 ± 0.9
x1 = 0.098 | 43.4 ± 0.9 | 43.1 ± 0.9 | 42.9 ± 0.9 | 42.7 ± 0.9 | 42.4 ± 0.9 | 42.1 ± 0.9
x1 = 0.1165 | 43.4 ± 0.9 | 43.1 ± 0.9 | 42.8 ± 0.9 | 42.6 ± 0.9 | 42.3 ± 0.9 | 42 ± 0.9

Reference: the NIST ThermoML archive (doi:10.1016/j.fluid.2007.05.029)
